The structures appear in SMILES notation. Read-outs that look alike come from different tables or passages of the source.

A short description of data set [1]: Solubility assessment of salts in water. In kind it is physicochemical. The conditions noted are these: thermodynamic from solid, read-out: Aqueous Solubility. On the procedure: Solubility assessment: A preweighed amount of powder of a salt was treated with water to target a nominal concentration of 10 mg/mL. If a clear solution was obtained, then the solubility was noted as ≧10 mg/mL. If a suspension was obtained, additional water was added to target a nominal concentration of 5 mg/mL. If still a suspension after the addition of water, additional water was added to target a lower nominal concentration. If a suspension was still observed at a nominal concentration of 0.1 mg/mL, the suspension was filtered through a 0.4 micron filter, and the filtrate was analyzed by RP-HPLC to ascertain the solubility range of the salt.

In data set [2] the target is T1, kinase domain protein of RC kinase (Homo sapiens, UniProt Q56UN5).
T1 sequence (Q56UN5 1061-1324 limits assumed): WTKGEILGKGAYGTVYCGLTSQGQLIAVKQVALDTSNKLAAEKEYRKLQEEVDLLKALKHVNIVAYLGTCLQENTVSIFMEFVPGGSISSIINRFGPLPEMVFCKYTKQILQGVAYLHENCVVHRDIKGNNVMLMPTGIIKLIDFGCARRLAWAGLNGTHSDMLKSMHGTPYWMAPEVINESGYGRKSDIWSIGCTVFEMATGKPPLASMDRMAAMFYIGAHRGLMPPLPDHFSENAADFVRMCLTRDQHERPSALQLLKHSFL
Kind of data set: Enzymatic assay for kinase inhibitory activity (Crebtide substrate, Lance readout). The data set is classed as biochemical. The conditions noted are these: free base compounds, inhibition of RC kinase activity at 1 μM. On the procedure:
Solutions of a test compound, Crebtide (a substrate), a kinase, and ATP were prepared using 1×MAPK Buffer (50 mM HEPES, 1 mM EGTA, […], 10 mM MgCl2, 2 mM DTT, and 0.01% Tween 20).
To each well, the test compound (1 μL) was first added (in duplicate) to reach a final concentration of 1 μM or 1×IC50 of the compound. The kinase (5 μL) was then added to each well to reach a final concentration of […] for the kinase domain or […] for the full-length domain. Each plate included a positive and negative controls in duplicate wells. Crebtide (2.5 μL) was then added to each well in duplicate to reach a final concentration of 50 nM. If the full-length kinase was used, the plates were incubated for 45 min at room temperature before proceeding further. ATP (2.5 μL) was added to each well to reach a final concentration of 1 μM for the kinase domain and 3 μM for the full-length.
After the addition of ATP, the plates were incubated for 45 min at room temperature. During the incubation, an EDTA solution (40 mM) and anti-Crebtide ([…]) were prepared. Additionally, a detection buffer stock solution was diluted ten fold before use.
After the incubation, the anti-Crebtide (5 μL) and EDTA (5 μL) were added to each well to reach their final concentrations of […] and 10 mM, respectively. The plates were allowed to develop at room temperature for 45 min. The plates were then read at 665 nm and 615 nm using Perkin Elmer Lance machine.
As will be appreciated by those skilled in the are, the activity of a particular salt provided herein will be the same as the activity for the parent free-base compound.

Consider `NC(=O)C1=C(NCc2ccc(O)cc2)N=NC1Nc1cccc(Cl)c1` (stereo not drawn) [Compound 1, 3-((3-chlorophenyl)amino)-5-((4-hydroxybenzyl)amino)-3H-pyrazole-4-carboxamide], for which the solubility (as a rule, the concentration that dissolves in the medium under given conditions) was below 40 µg/mL in data set [1] (Free base) and above 63 µg/mL in data set [1] (HCl salt). Further, in data set [2], the inhibition (commonly the percentage by which the read-out fell short of the control) at 1 µM is at least 50%.

For `CN1CCN(c2ccc(NC3N=NC(NCc4ccc(O)cc4)=C3C(N)=O)cc2)CC1` (stereo not drawn) [Compound 2, 5-((4-hydroxybenzyl)amino)-3-((4-(4-methylpiperazin-1-yl)phenyl)amino)-3H-pyrazole-4-carboxamide], the solubility was below 40 µg/mL in data set [1] (Free base) and above 1000 µg/mL in data set [1] (HCl salt). In data set [2], this compound yielded an inhibition at 1 µM of at least 50%.

On to `NC(=O)C1=C(NCc2ccc(O)cc2)N=NC1Nc1ccc(CN2CCOCC2)cc1` (stereo not drawn) [Compound 3, 5-((4-hydroxybenzyl)amino)-3-((4-(morpholinomethyl)phenyl)amino)-3H-pyrazole-4-carboxamide], for which the solubility in data set [1] (Free base) is below 40 µg/mL; in data set [1] (HCl salt) it was above 500 µg/mL. The compound further registered an inhibition at 1 µM in data set [2] of at least 50%.

For `NC(=O)c1c(Nc2ccc(N3CCOCC3)cc2)n[nH]c1NCc1ccc(O)cc1` [Compound 4, 5-((4-hydroxybenzyl)amino)-3-((4-morpholinophenyl)amino)-3H-pyrazole-4-carboxamide], the solubility is below 100 µg/mL in data set [1] (Free base); above 10000 µg/mL in data set [1] (HBr salt); above 10000 µg/mL in data set [1] (HCl salt); below 200 µg/mL in data set [1] (Phosphoric acid salt); above 2000 µg/mL in data set [1] (Sulfuric acid salt); below 200 µg/mL in data set [1] (Trifluoroacetic acid salt). For the same compound, the solubility in data set [1] (acetic acid salt) was below 500 µg/mL; in data set [1] (camphorsulfonic acid salt) it was below 200 µg/mL; in data set [1] (formic acid salt) it was below 500 µg/mL. Also, in data set [2], the inhibition at 1 µM was at least 50%.

In the case of `NC(=O)C1=C(NCc2ccc(O)cc2)N=NC1Nc1ccc(N2CCOCC2)nc1` (stereo not drawn) [Compound 5, 5-((4-hydroxybenzyl)amino)-3-((6-morpholinopyridin-3-yl)amino)-3H-pyrazole-4-carboxamide], the solubility is below 100 µg/mL in data set [1] (Free base); above 2000 µg/mL in data set [1] (HCl salt); above 10000 µg/mL in data set [1] (Methane sulfonic acid salt); above 100 µg/mL in data set [1] (Phosphoric acid salt); above 10 µg/mL in data set [1] (Sulfuric acid salt); above 1000 µg/mL in data set [1] (Trifluoroacetic acid salt). For the same compound, the inhibition at 1 µM in data set [2] is at least 50%.

Consider `NC(=O)C1=C(NCc2ccc(O)cc2)N=NC1Nc1ccc(-c2ccccn2)cc1` (stereo not drawn) [Compound 6, 5-((4-hydroxybenzyl)amino)-3-((4-(pyridin-2-yl)phenyl)amino)-3H-pyrazole-4-carboxamide], for which the solubility in data set [1] (Free base) was below 100 µg/mL; in data set [1] (Phosphoric acid salt), above 20000 µg/mL; in data set [1] (Sulfuric acid salt), below 500 µg/mL; in data set [1] (Trifluoroacetic acid salt), below 500 µg/mL; in data set [1] (camphorsulfonic acid salt), below 500 µg/mL; in data set [1] (p-toluenesulfonic acid salt) it was below 200 µg/mL. Moreover, in data set [1] (tartaric acid salt), the solubility is below 200 µg/mL. Moreover, the inhibition at 1 µM in data set [2] is at least 50%.

For `CC(C)N1CCN(c2ccc(Nc3n[nH]c(NCc4ccc(O)cc4)c3C(N)=O)cc2)CC1` [Compound 7, 5-((4-hydroxybenzyl)amino)-3-((4-(4-isopropylpiperazin-1-yl)phenyl)amino)-3H-pyrazole-4-carboxamide], the results for the solubility in data set [1] (Free base), in data set [1] (HCl salt) and in data set [1] (Phosphoric acid salt) were below 40 µg/mL, above 500 µg/mL and above 1000 µg/mL, respectively. In addition, the inhibition at 1 µM in data set [2] was at least 50%.

As for `NC(=O)C1=C(NCc2ccc(O)cc2)N=NC1Nc1ccc(-n2ccnc2)cc1` (stereo not drawn) [Compound 8, 3-((4-(1H-imidazol-1-yl)phenyl)amino)-5-((4-hydroxybenzyl)amino)-3H-pyrazole-4-carboxamide], the solubility in data set [1] (Free base) was below 40 µg/mL; in data set [1] (HCl salt), above 500 µg/mL; in data set [1] (Phosphoric acid salt) it was above 1000 µg/mL. Further, the inhibition at 1 µM in data set [2] is at least 50%.

Turning to `NC(=O)c1c(Nc2ccc3[nH]ncc3c2)n[nH]c1NCc1ccc(O)cc1` [Compound 9, 3-((1H-indazol-5-yl)amino)-5-((4-hydroxybenzyl)amino)-3H-pyrazole-4-carboxamide], the solubility is below 40 µg/mL in data set [1] (Free base) and below 100 µg/mL in data set [1] (HCl salt). In data set [2], this compound came in with an inhibition at 1 µM of at least 50%.

The values above are taken from patent US9540351B2, “Pharmaceutically acceptable salts of 3,5-diaminopyrazole kinase inhibitors” (AXIKIN PHARMACEUTICALS, INC., priority 2013, dated 2017).
